{
  "source": "paper PMC6930524",
  "about": "“A Prospective Repurposing of Dantrolene as a Multitarget Agent for Alzheimer’s Disease” (Molecules, 2019)",
  "key": {"[1]": {"biological_target": "T1, beta amyloid peptide 1–40 (Aβ40) (Homo sapiens, UniProt P05067)", "T1 construct": "beta amyloid peptide 1–40 (Aβ40); purchased Sigma-Aldrich Europe (Milan, Italy)", "T1 sequence (P05067 672-711 limits assumed)": "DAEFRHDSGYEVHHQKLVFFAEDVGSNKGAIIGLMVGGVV", "experiment": "Inhibition of Aβ40 self-aggregation (ThT fluorescence, 2% HFIP)", "type": "biochemical", "conditions": "inhibitor 100 μM, Aβ40 30 μM", "excerpt": "As an additional proof of the potential of DAN in interfering with AD-related processes, we investigated the effects on the in vitro self-aggregation of beta amyloid peptide 1–40 (Aβ40) and Tau hexapeptide (306)VQIVYK(311) (PHF6). Aβ40 is used as an in vitro probe of the fibrillization process leading to amyloid fibrils and ultimately to senile plaques in AD [32], while PHF6 represents the highly proaggregating sequence of the repeated domain R3 of Tau protein, responsible of the formation of neurofibrillary tangles and other tauopathies in NDs. With this aim, we developed a fast screening method of Aβ40 aggregation using thioflavin T (ThT) as fluorescent probe and 2% 1,1,1,3,3,3-hexafluoro-2-propanol (HFIP) as aggregation enhancer. Regarding PHF6, we started from an already published methodology for the setup of an in-house method, with 2,2,2-trifluoroethanol (TFE) as the cosolvent. […] Quercetin was used as a standard reference for the inhibition of amyloid aggregation. The concentrations of inhibitors were 100 μM and 25 μM in Aβ40 and in PHF6 assay, respectively. […]\nAn already established assay was used in a 96-well plate procedure, using HFIP as aggregation enhancer. […] After addition of ThT, the fluorescence was read at 440/485 excitation/emission wavelength. […] Inhibition values were calculated by means of Prism."}, "physchem": {"experiment": "physchem", "conditions": "pH 7.4", "experimental": "In order to check the hydrolytic stability of DAN in buffered media, we used a HPLC method to check the stability of 20 μM DAN in phosphate buffered saline (PBS) at physiological pH of 7.4, at 37 °C.\nThe chromatographic data were acquired using the Waters Breeze software (version 3.20). Analyses were performed on a Phenomenex C18 column (150 × 4.6 mm i.d., 3 µm particle size; Phenomenex srl, Castel Maggiore, Italy) using a mobile phase of methanol/water (75:25 v/v), with aqueous formic acid 0.1%. The used flow rate was 0.5 mL/min and the injection volume was 20 µL. Wavelength UV-Vis detector was set at 380 nm.\nThe chemical stability of dantrolene sodium was evaluated in a phosphate buffered saline solution pH 7.4 (10 mM HPO4^2−/H2PO4^−, 100 mM NaCl) at 37 °C. Samples were tested in triplicate starting from three different stocks solution (1 mM), which were prepared separately."}, "[2]": {"parameters": "method as in PMID 11735355", "conditions": "cited from earlier work"}, "[3]": {"conditions": "cited from earlier work"}, "[4]": {"system": "CAC mutants C136S, C155S, C136/155S, C-lessV", "experiment": "Transport activity of cysteine-modified CAC mutants in proteoliposomes", "type": "biochemical, rat", "conditions": "10 μM, C-less V compared with WT", "experimental": "The reducing properties of DAN were studied on the recombinant WT CAC with the protein at different states of oxidation. Figure 8B highlights that when the carrier was incubated during the transport activity with 1 mM dithioerythritol (DTE), 10 µM DAN was able to reduce a major aliquot of oxidized protein (70% recovery of activity compared to the control). […] To identify the cysteines responsible for the activation of the CAC carrier, the proteoliposomes of the WT protein and the mutants C136S, C155S, C136/155S, and C-lessV (C23V/C58V/C89S/C136V/C155V/C283S) were incubated with 10 μM DAN. […] Further evidence of the reducing action of DAN on CAC was obtained by oxidation of the reconstituted WT protein under controlled conditions, i.e., in the presence or absence of hydrogen peroxide and its subsequent degradation by the enzyme catalase. […]\nBefore starting the transport activity, proteoliposomes were passed through a Sephadex G-75 column (0.7 cm diameter; 15 cm height; Pharmacia, Milan, Italy) to remove the external substrate. […] Finally, the external substrate was removed by chromatography on Sephadex G-75 columns (0.7 cm diameter; 10 cm height) and intraliposomal radioactivity was measured by a liquid scintillation counter (Perkin Elmer, Milan, Italy)."}},
  "data": [
    {"smiles": "O=C1CN(/N=C/c2ccc(-c3ccc([N+](=O)[O-])cc3)o2)C(O)=N1", "note": "[Dantrolene]", "values": [
      {"measurement": "inhibition at 100 µM", "setting": "[1]", "value": 56, "unit": "%"},
      {"measurement": "recovery at 60 h, 20 μM", "setting": "physchem", "value": 92, "unit": "%"},
      {"measurement": "antioxidant potency, inhibition of Fe2+/thiocyanate peroxidation of linoleic acid", "setting": "[2]", "value": "high antioxidant potency"},
      {"measurement": "concentration found in the cytosolic compartment in vivo", "setting": "[3]", "value": 10, "unit": "µM"},
      {"measurement": "increase in transport activity on cysteine mutants", "setting": "[4]", "value": "significantly lost"}
    ]}
  ]
}
